According to patent US12303492B2, “Compounds for treating TNBC” (Purdue Pharma L.P., priority 2017, dated 2025):

Test system: HCC1143 p13 spheroid (TNBC, BL1 subtype, BRCA-1 wt)
Assay: TNBC spheroid model, residual cell viability by standard ATP assay
Assay type: cell-based
Details: for mean cell viability: mean of six repeats
Experimental: The activity of EDO-S101 alone and in combination was evaluated in triple negative breast cancer (TNBC) cells lines using a spheroid model.
Heterotypic tumour spheroids were prepared from the individual primary breast cancer tissue. The tumour samples were mechanically and enzymatically digested using an enzyme cocktail (Roche, Penzberg Germany), cell viability determined using the trypan-blue exclusion test, and spheroids seeded at a cell density of 50,000 using a modified liquid overlay method. After 48 h in cell culture under standard conditions, successful spheroid formation was documented photographically before starting treatment.
The spheroids were treated with EDO-S101 (5 μM, 10 μM) alone and in combination with carboplatin and/or the PARP inhibitor olaparib (Table 2) for different periods of time (48, 72 h). Solvent controls and an untreated (medium) control was used under the same culture conditions. Treatment efficacy of all drugs was analysed with a standard ATP assay.
The results are the mean of six repeats per treatment based on the results of the ATP assay.
HCC1143 cells are from the BL1 triple negative breast cancer subtype.

N.N.O=C([O-])C1(C(=O)[O-])CCC1.[Pt+2] [Carboplatin, reference compound]
mean cell viability (HCC1143 p13 spheroids, T48 h, control agents: carboplatin 40.84 μg/ml, paclitaxel 1.53 μg/ml, olaparib 6.6 μg/ml): 118.28 % solvent control
mean cell viability (HCC1143 spheroids, T72 h, control agents: carboplatin 40.84 μg/ml, paclitaxel 1.53 μg/ml, olaparib 6.6 μg/ml): 105.88 % solvent control

Cn1c(CCCCCCC(=O)NO)nc2cc(N(CCCl)CCCl)ccc21 [EDO-S101, 7-(5-(bis(2-chloroethyl)amino)-1-methyl-1H-benzo[d]imidazol-2-yl)-N-hydroxyheptanamide]
mean cell viability (HCC1143 p13 spheroids, T48 h, EDO S101 5 μM alone or with carboplatin 40.84 μg/ml and/or olaparib 6.6 μg/ml): 85.75 % solvent control
mean cell viability (HCC1143 p13 spheroids, T48 h, EDO S101 10 μM alone or with carboplatin 40.84 μg/ml and/or olaparib 6.6 μg/ml): 57.43 % solvent control
mean cell viability (HCC1143 spheroids, T72 h, EDO S101 5 μM alone or with carboplatin 40.84 μg/ml and/or olaparib 6.6 μg/ml): 79.99 % solvent control
mean cell viability (HCC1143 spheroids, T72 h, EDO S101 10 μM alone or with carboplatin 40.84 μg/ml and/or olaparib 6.6 μg/ml): 77.09 % solvent control
residual cell viability (HCC1143 spheroids, after 48 h, EDO-S101 5 μm (alone or in combination)): 86%
residual cell viability (HCC1143 spheroids, after 48 h, EDO-S101 10 μm): 57%

O=C(c1cc(Cc2n[nH]c(=O)c3ccccc23)ccc1F)N1CCN(C(=O)C2CC2)CC1 [Olaparib, reference compound]
residual cell viability (human, 72 h): 62%
